The values that follow come from patent US11059801B2, “Methods to induce targeted protein degradation through bifunctional molecules” (Dana-Farber Cancer Institute, Inc., priority 2014, dated 2021).

The target of assay [1] is BRD4 adjoined to nanoluciferase (Nluc) (Homo sapiens (Human), UniProt O60885+Q96SW2). Nature of the assay: BRD4 Dual Luciferase Assay. The format is cell-based.
Method: Transduced cells were selected with puromycin and expanded. […] Cells were incubated with compound for 4 hours at 37° C., 5% CO2 and then allowed to cool to room temperature. To each plate was added 25 μL of Fluc buffer (200 mM Tris, 15 mM MgSO4, 100 uM EDTA, 1 mM DTT, 1 mM ATP, 200 uM Coenzyme A, 400 uM D-Luciferin, 0.1% Trition X-100).
The target of assay [2] is T1, BRD4 (Homo sapiens (Human), UniProt O60885). Nature of the assay: BRD4 Cell Western (BRD4 levels in 293T cells, LiCOR). It is filed as cell-based.
Method: On the following day, dBET compounds were added at various concentrations. After being treated with the dBET compounds for 4 hours, cells were fixed with formaledhyde, permeabilized using 0.1% triton, blocked with LiCor blocking buffer, and incubated with the primary antibody (BRD4, 1:1000) overnight. On the following day, cells were washed (5×TBST) and stained using Odysee Cell Stain (1:500). A secondary antibody recoginizing the rabbit BRD4 antibody was added simultaneously (1:800). Images were quantified using LiCOR imager.
Another assay concerns the target CRBN-DDB1/BRD4 (Homo sapiens (Human), UniProt O60885+Q96SW2). Nature of the assay: CRBN-DDB1/BRD4 Dimerization Assay.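 Further: AlphaScreen proximity signal between GST-tagged BRD4 and CRBN-DDB1 with glutathione donor and nickel chelate acceptor beads, read after 1 hr compound incubation at room temperature, values from Gaussian curve fit.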 The format is binding.
The target of assay [3] is fusion of FKBP12 to nanoluciferase (Homo sapiens (Human), UniProt P62942+Q96SW2). Nature of the assay: FKBP Dual Luciferase Assay (FKBP12). To be noted: 4 hours. It is filed as cell-based.
Method: (§1) The cells were treated with increasing concentrations of various dFKBPs for 4 hours. The amount of NLuc and FLuc was measured, and the abundance of the FKBP12-HA-NLuc was quantified by calculating the signal ratio of NLuc/FLuc.
Assay [4] addresses fusion of mutant FKBP12 to nanoluciferase (Homo sapiens (Human), UniProt P62942+Q96SW2, F36V). Nature of the assay: FKBP Dual Luciferase Assay (mutant FKBP12, 36V).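 On all read-outs here: cells exposed to rising degrader concentrations, FKBP12 fusion level read as NLuc/FLuc signal ratio, lower ratio means more degradation.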 The format is cell-based. To be noted: 4 hours; for DC50: read-out: DC50 (nM) FKBP 36V.
Method: as §1
A further assay concerns the target GST-FKBP12 (36V) (Homo sapiens (Human), UniProt P62942, F36V). Nature of the assay: FKBP12 Ligand-Displacement AlphaScreen Assay (36V). To be noted: read-out: IC50 (nM) FKBP 36V. The format is binding.
The next assay has as its target GST-FKBP12 (WT) (Homo sapiens (Human), UniProt P62942). Nature of the assay: FKBP12 Ligand-Displacement AlphaScreen Assay (WT). It is filed as binding. To be noted: read-out: IC50 (nM) FKBP.
In assay [5] the target is T1, BRD4. The assay is described as follows: BRD4 immunoblot in MV4-11 cells. To be noted: MV4-11, 24 h. The format is cell-based. (In general: In western blotting, separated proteins are transferred to a membrane and probed.)
Assay [6] has as its target T1, BRD4. The assay is described as follows: BRD4 AlphaScreen. The format is binding. To be noted: Table 4-1. (Bead proximity is the source of the signal in Alpha formats.)
Method: Cells were grown at 37° C. to an OD of 0.8, induced with 500 μM isopropyl-1-thio-D-galactopyranoside, incubated overnight at 17° C., collected by centrifugation, and stored at −80° C. Cell pellets were sonicated in buffer A (50 mM hepes 7.5+300 mM NaCl+10% glycerol+10 mM Imidazole+3 mM BME) and the resulting lysate was centrifuged at 35,000×g for 40 min. […] The sample was then passed through a desalting column ( 26/10 column) equilibrate with buffer A (without imidazole), and the eluted protein was subjected to a second Ni-NTA step to remove His-tag and TEV. The eluant was concentrated and passed through a Superdex-200 10/300 column in 20 mM hepes7.5+150 mM NaCl+1 mM DTT. Fractions were pooled, concentrated to 14 mg/ml, and frozen at −80° C.
The data were analyzed using PRISM Graphpad v6 to obtain IC50 values.
The test system of another assay is NGP. Nature of the assay: Cell viability, ATPlite, 72 hours. It is filed as cell-based. To be noted: NGP cells, Table 4-1. (In general: Cellular ATP, detected with luciferase, serves as a proxy for viable cell number.)
The mark [7] stands for this setting: Gaussian fit of dimerization signal.
Where [8] appears, read: Gaussian fit parameter of dimerization signal.

Where two headings read alike, the source gives them in different places.

Chain of GST-FKBP12 (36V) (P62942 whole entry F37V): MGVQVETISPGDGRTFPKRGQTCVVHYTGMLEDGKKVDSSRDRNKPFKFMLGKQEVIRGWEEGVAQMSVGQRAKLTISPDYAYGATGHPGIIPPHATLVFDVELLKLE
Chain of GST-FKBP12 (WT) (P62942 whole entry): as the sequence (P62942 whole entry F37V) above, with V37F counted along it
Method for GST-FKBP12 (36V): (§2) Following a 30 min-incubation, 20 uL detection solution containing Streptavidin Donor Beads and Glutathione Acceptor Beads diluted to 20 ng/uL in assay buffer was added to each well. […] Percent activity values were calculated by setting the average background (no protein wells) to 0% the average DMSO wells to 100% activity. Standard deviations were determined from at least four replicate measurements for compound concentration.
Method for GST-FKBP12 (WT): as §2

Regarding `CC[C@@H]1C(=O)N(C)c2cnc(Nc3ccc(C(=O)NCCCOCCOCCOCCCNC(=O)COc4cccc5c4C(=O)N(C4CCC(=O)NC4=O)C5=O)cc3OC)nc2N1C1CCCC1` (some centres unmarked) [dBET10], the “Conc@Emax” value in [1] (concentration at Emax) is 50 µM. The molecule further displayed a DC50 at BRD4 [2] of 58 nM. For the same molecule, on CRBN-DDB1/BRD4 (setting [7]), the “Dimer Amplitude” value amounted to 12824 and the “Dimer Mean” value is −7.349. Moreover, the “Dimer SD” value at CRBN-DDB1/BRD4 (setting [8]) came out at 0.5165.
By IC50 is commonly meant the midpoint of a concentration-inhibition curve. As for `CCC(C)(C)C(=O)C(=O)N1CCCC[C@H]1C(=O)O[C@H](CCc1ccc(OC)c(OC)c1)c1cccc(NC(=O)CCC(=O)NCCCCNC(=O)COc2cccc3c2C(=O)N(C2CCC(=O)NC2=O)C3=O)c1` (some centres unmarked) [dFKBP-1], the DC50 in assay [3] is 11 nM; in assay [4] (FKBP 36V) it was 153 nM. In addition, the 50% inhibitory concentration (IC50) at GST-FKBP12 (36V) is 237 nM.
Turning to `Cc1sc2c(c1C)C(c1ccc(Cl)cc1)=N[C@@H](CC(=O)NCCCN1CCN(C(=O)CCCCCNC(=O)COc3cccc4c3C(=O)N(C3CCC(=O)NC3=O)C4=O)CC1)c1nnc(C)n1-2` (some centres unmarked) [dBET18], the DC50 came to 243 nM in assay [1] (Dual Luciferase, 4 hours) and 196 nM at BRD4 [2]. Besides, the “Conc@Emax” value in [1] (concentration at Emax) was 1.581 µM. For the same molecule, in assay [1] (4 hours), the “pDC50 (dual luc)” value was 6.614. In addition, the “Dimer Amplitude” value on CRBN-DDB1/BRD4 (setting [7]) is 13116. For the same molecule, the “Dimer Mean” value at CRBN-DDB1/BRD4 (setting [7]) is −8.173. Also, the “Dimer SD” value at CRBN-DDB1/BRD4 (setting [8]) was determined as 0.618.
As to `Cc1sc2c(c1C)C(c1ccc(Cl)cc1)=N[C@@H](CC(=O)NCCNC(=O)COc1cccc3c1C(=O)N(C1CCC(=O)NC1=O)C3=O)c1nnc(C)n1-2` (some centres unmarked) [dBET3], the “Conc@Emax” value in assay [1] (concentration at Emax) was 0.5 µM. Moreover, on CRBN-DDB1/BRD4 (setting [7]), the “Dimer Amplitude” value is recorded as 16389 and the “Dimer Mean” value is −7.497. Further, at CRBN-DDB1/BRD4 (setting [8]), the “Dimer SD” value came out at 0.6763.
Regarding `CCC(C)(C)C(=O)C(=O)N1CCC[C@H]1C(=O)O[C@H](CCc1ccc(OC)c(OC)c1)c1cccc(OCC(=O)NCCCCNC(=O)COc2cccc3c2C(=O)N(C2CCC(=O)NC2=O)C3=O)c1` (some centres unmarked) [c1FKBP-3], in assay [3], the DC50 was 19700 nM and the “Max Degradation (dual luciferase, %) FKBP” value amounted to 22%. Further, on GST-FKBP12 (WT), the IC50 amounted to 1830 nM. Besides, the “Max Degradation (dual luciferase, %) FKBP 36V” value in assay [4] is given as 12%. Moreover, on GST-FKBP12 (36V), the half-maximal inhibitory concentration (IC50) worked out at 1200 nM.
On to `CC[C@H](C(=O)N1CCCC[C@H]1C(=O)O[C@H](CCc1ccc(OC)c(OC)c1)c1cccc(OCC(=O)NCCCOCCOCCOCCCNC(=O)COc2cccc3c2C(=O)N(C2CCC(=O)NC2=O)C3=O)c1)c1cc(OC)c(OC)c(OC)c1` (some centres unmarked) [c1FKBP*-7], for which the figures for the half-maximal inhibitory concentration (IC50) at GST-FKBP12 (WT) and at GST-FKBP12 (36V) were above 50000 nM and 373 nM, respectively. Moreover, the DC50 in [4] (FKBP 36V) amounted to 0.5 nM.
Take `Cc1c(C(=O)NCCCCCCCCNC(=O)COc2cccc3c2C(=O)N(C2CCC(=O)NC2=O)C3=O)sc2c1C(c1ccc(Cl)cc1)=N[C@@H](CC(=O)NCCCN1CCN(C)CC1)c1nnc(C)n1-2` (some centres unmarked) [dBET31]: the “Conc@Emax” value in assay [1] (concentration at Emax) came to 15.81 µM. Moreover, at CRBN-DDB1/BRD4 (setting [7]), the “Dimer Amplitude” value came out at 32323 and the “Dimer Mean” value is −7.374. For the same molecule, the “Dimer SD” value on CRBN-DDB1/BRD4 (setting [8]) was determined as 0.6046.
The corresponding values for `CC[C@@H]1C(=O)N(C)c2cnc(Nc3ccc(C(=O)NCCCCCCNC(=O)COc4cccc5c4C(=O)N(C4CCC(=O)NC4=O)C5=O)cc3OC)nc2N1C1CCCC1` (some centres unmarked) [dBET7] are 0.5 µM, 31800, −6.18 and 0.4549.
Consider `O=C1CCC(N2C(=O)c3ccccc3C2=O)C(=O)N1` (centres unmarked) [thalidomide], for which the “BRD4 degradation by compound alone (immunoblot)” value on BRD4 [5] is listed as “insufficient to induce BRD4 degradation”.
Regarding `CC[C@H](C(=O)N1CCCC[C@H]1C(=O)O[C@H](CCc1ccc(OC)c(OC)c1)c1cccc(OCC(=O)NCCCCCCNC(=O)COc2cccc3c2C(=O)N(C2CCC(=O)NC2=O)C3=O)c1)c1cc(OC)c(OC)c(OC)c1` (some centres unmarked) [c1FKBP*-8], the Dmax in [3] (read-out: Max Degradation (dual luciferase, %) FKBP) was below 5%; in assay [4] (FKBP 36V, read-out: Max Degradation (dual luciferase, %) FKBP 36V), 75%. Further, the half-inhibitory concentration (IC50) at GST-FKBP12 (WT) was above 50000 nM; on GST-FKBP12 (36V) it was 365 nM. In assay [4] (FKBP 36V), the DC50 came out at 0.8 nM.
On BRD4 [6], `COc1cc(C(=O)NCCCOCCOCCOCCCNC(=O)COc2cccc3c2C(=O)N(C2CCC(=O)NC2=O)C3=O)ccc1Nc1ncc2c(n1)N(C)c1ccccc1C(=O)N2C` (centres unmarked) [dBET12] had a half-maximal inhibitory concentration (IC50) of 2080 nM. Moreover, on CRBN-DDB1/BRD4 (setting [7]), the “Dimer Amplitude” value came to 173.7 and the “Dimer Mean” value was −6.366. The “Dimer SD” value on CRBN-DDB1/BRD4 (setting [8]) was 3.287.
`Cc1sc2c(c1C)C(c1ccc(Cl)cc1)=N[C@@H](CC(=O)NCCCCCCCCNC(=O)COc1cccc3c1C(=O)N(C1CCC(=O)NC1=O)C3=O)c1nnc(C)n1-2` (some centres unmarked) [dBET6]: the “IC50 (nM) NGP” value in the assay with NGP is listed as 187/6.
As for `CC[C@H](C(=O)N1CCCC[C@H]1C(=O)O[C@H](CCc1ccc(OC)c(OC)c1)c1cccc(OCC(=O)NCCCCNC(=O)COc2cccc3c2C(=O)N(C2CCC(=O)NC2=O)C3=O)c1)c1cc(OC)c(OC)c(OC)c1` (some centres unmarked) [c1FKBP*-6], the results for the 50% inhibitory concentration (IC50) on GST-FKBP12 (WT) and on GST-FKBP12 (36V) were above 50000 nM and 311 nM, respectively. Moreover, the DC50 in assay [4] (FKBP 36V) was 1.3 nM.
As to `Cc1sc2c(c1C)C(c1ccc(Cl)cc1)=N[C@@H](CC(=O)NCCCCCCNC(=O)COc1cccc3c1C(=O)N(C1CCC(=O)NC1=O)C3=O)c1nnc(C)n1-2` (some centres unmarked) [dBET5], the “Conc@Emax” value in [1] (concentration at Emax) worked out at 1.581 µM. In addition, on CRBN-DDB1/BRD4 (setting [7]), the “Dimer Amplitude” value is 18644 and the “Dimer Mean” value is on record as −6.277. The “Dimer SD” value at CRBN-DDB1/BRD4 (setting [8]) turned out to be 0.4127.
For `Cc1sc2c(c1C)C(c1ccc(Cl)cc1)=N[C@@H](CC(=O)NCCCCOc1cccc3c1C(=O)N(C1CCC(=O)NC1=O)C3=O)c1nnc(C)n1-2` (some centres unmarked) [dBET28], the “Conc@Emax” value in assay [1] (concentration at Emax) stood at 0.001581 µM. For the same molecule, on CRBN-DDB1/BRD4 (setting [7]), the “Dimer Amplitude” value was 1752 and the “Dimer Mean” value is given as −7.037. The “Dimer SD” value on CRBN-DDB1/BRD4 (setting [8]) worked out at 1.263.
For the molecule `Cc1sc2c(c1C)C(c1ccc(Cl)cc1)=N[C@@H](CC(=O)NCCCCCCOc1cccc3c1C(=O)N(C1CCC(=O)NC1=O)C3=O)c1nnc(C)n1-2` (some centres unmarked) [dBET29], in assay [1] (concentration at Emax), the “Conc@Emax” value was determined as 0.05 µM. On CRBN-DDB1/BRD4 (setting [7]), the “Dimer Amplitude” value stood at 1454 and the “Dimer Mean” value was −7.756. On CRBN-DDB1/BRD4 (setting [8]), the “Dimer SD” value came to 0.7393.
`COc1ccc(CC[C@@H](OC(=O)[C@@H]2CCCCN2C(=O)Cc2ccccc2)c2cccc(OCC(=O)NCCCCNC(=O)COc3cccc4c3C(=O)N(C3CCC(=O)NC3=O)C4=O)c2)cc1OC` (some centres unmarked) [c1FKBP-5] gave a DC50 in assay [3] of 2970 nM. Besides, the “Max Degradation (dual luciferase, %) FKBP” value in assay [3] stood at 11%. In addition, the half-inhibitory concentration (IC50) was above 50000 nM at GST-FKBP12 (WT) and 2290 nM at GST-FKBP12 (36V). Moreover, the “Max Degradation (dual luciferase, %) FKBP 36V” value in assay [4] is below 5%.
On to `Cc1sc2c(c1C)C(c1ccc(Cl)cc1)=N[C@@H](CC(=O)NCCOCCOCCNC(=O)COc1cccc3c1C(=O)N(C1CCC(=O)NC1=O)C3=O)c1nnc(C)n1-2` (some centres unmarked) [dBET24], for which, in assay [1] (concentration at Emax), the “Conc@Emax” value worked out at 5 µM. Moreover, on CRBN-DDB1/BRD4 (setting [7]), the “Dimer Amplitude” value turned out to be 31348 and the “Dimer Mean” value was −7.489. For the same molecule, the “Dimer SD” value on CRBN-DDB1/BRD4 (setting [8]) was 0.6531.
As to `Cc1sc2c(c1C)C(c1ccc(Cl)cc1)=N[C@@H](CC(=O)NCCCCCCNC(=O)c1ccc3c(c1)C(=O)N(C1CCC(=O)NC1=O)C3=O)c1nnc(C)n1-2` (some centres unmarked) [dBET15], the “Conc@Emax” value in assay [1] amounted to 5 µM. At CRBN-DDB1/BRD4, the “Dimer Amplitude” value was 13540, the “Dimer Mean” value is −7.111 and the “Dimer SD” value worked out at 0.6279.
As for `Cc1cnc(Nc2ccc(N3CCN(C(=O)CCCNC(=O)COc4cccc5c4C(=O)N(C4CCC(=O)NC4=O)C5=O)CC3)cc2)nc1Nc1cccc(S(=O)(=O)NC(C)(C)C)c1` (centres unmarked) [dBET20], the “pDC50 (dual luc)” value in [1] (4 hours) is 6.686. Moreover, the half-inhibitory concentration (IC50) against BRD4 [6] was determined as 5700 nM.
With `CCC(C)(C)C(=O)C(=O)N1CCCC[C@H]1C(=O)O[C@H](CCc1ccc(OC)c(OC)c1)c1cccc(OCC(=O)NCCCCNC(=O)COc2cccc3c2C(=O)N(C2CCC(=O)NC2=O)C3=O)c1` (some centres unmarked) [c1FKBP-4], the “Max Degradation (dual luciferase, %) FKBP” value in [3] is listed as 34%. For the same molecule, the IC50 on GST-FKBP12 (WT) came to 408 nM; at GST-FKBP12 (36V), 369 nM. The “Max Degradation (dual luciferase, %) FKBP 36V” value in assay [4] came to 21%.
